# Test results taken from patent publication US7674795B2, “Fluorene derivatives, composition containing said derivatives and the use thereof” (Aventis Pharma SA, priority 2005, dated 2010).
# pIC50: −log10 of the molar value. Counter-ions that a name gives are not always drawn.
# Biological target: Hsp82 (Saccharomyces cerevisiae, UniProt P02829)
# Experiment: PK/LDH enzyme coupling test of the ATPase activity of Hsp82 (NADH decrease at 340 nm)
# Type: biochemical
# Conditions: 1 μM Hsp82, 250 μM ATP, 37° C., pyruvate kinase/lactate dehydrogenase coupling, read-out: Hsp82 ATPase IC50
# In short: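 Yeast Hsp82 ATPase was coupled to PK/LDH, with ADP formation followed continuously as NADH loss at 340 nm at 37 °C. The mixture was preincubated 30 min at 37 °C, and the reaction was started with compound at variable concentrations plus Hsp82 at 1 μM. Initial rates (μM ADP/min) came from the tangent slope at origin, expressed as % inhibition.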
# Chain of Hsp82 (P02829 whole entry): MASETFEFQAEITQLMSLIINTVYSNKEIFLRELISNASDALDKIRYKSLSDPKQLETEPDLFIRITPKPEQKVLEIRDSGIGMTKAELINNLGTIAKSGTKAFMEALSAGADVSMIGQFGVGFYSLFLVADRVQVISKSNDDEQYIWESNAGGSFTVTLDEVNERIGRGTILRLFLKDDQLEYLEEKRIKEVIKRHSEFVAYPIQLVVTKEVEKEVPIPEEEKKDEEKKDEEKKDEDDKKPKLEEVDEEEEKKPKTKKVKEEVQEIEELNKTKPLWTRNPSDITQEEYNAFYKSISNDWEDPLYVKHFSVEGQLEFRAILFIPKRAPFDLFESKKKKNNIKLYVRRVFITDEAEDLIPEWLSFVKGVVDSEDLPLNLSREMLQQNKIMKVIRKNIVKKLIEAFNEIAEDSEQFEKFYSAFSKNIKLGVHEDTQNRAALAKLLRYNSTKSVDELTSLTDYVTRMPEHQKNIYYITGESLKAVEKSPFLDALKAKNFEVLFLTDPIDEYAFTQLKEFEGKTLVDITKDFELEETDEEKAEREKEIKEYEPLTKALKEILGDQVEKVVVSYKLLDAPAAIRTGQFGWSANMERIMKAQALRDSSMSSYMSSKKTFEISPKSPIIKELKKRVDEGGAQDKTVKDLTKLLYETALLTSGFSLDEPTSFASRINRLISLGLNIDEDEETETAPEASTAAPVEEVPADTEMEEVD
row,pIC50,Compound
1,5.00 to 6.00,"O=C(NC1c2ccccc2-c2c(-c3nc4ccncc4[nH]3)cccc21)c1ccnc(F)c1 (racemic) [Example 95, 2-fluoro-N-[4-(3H-imidazo[4,5-c]pyridin-2-yl)-9H-fluoren-9(R,S)-yl]-isonicotinamide]"
2,5.00 to 6.00,"O=C(NC1c2ccccc2-c2c(-c3nc4ccncc4[nH]3)cccc21)c1ccnc2ncccc12 (racemic) [Example 97, hydrochloride of [4-(3H-imidazo[4,5-c]pyridin-2-yl)-9H-fluoren(R,S)-9-yl]amide of 1,8-naphthyridine-4-carboxylic acid]"
3,5.00 to 6.00,"Cc1cc(C(=O)NC2c3ccccc3-c3c(-c4nc5ccncc5[nH]4)cccc32)cc(O)n1 (racemic) [Example 121, 2-hydroxy-N-[4-(3H-imidazo[4,5-c]pyridin-2-yl)-9H-fluoren-9(R,S)-yl]-6-methyl-isonicotinamide]"
4,5.00 to 6.00,"O=C(NC1c2ccccc2-c2c(-c3nc4ccc(O)cc4[nH]3)cccc21)c1ccncc1 (racemic) [Example 117, N-[4-(6-hydroxy-1H-benzimidazol-2-yl)-9H-fluoren-9(R,S)-yl]-isonicotinamide]"
5,> 6.00,"COC(=O)c1cc(C(=O)NC2c3ccccc3-c3c(-c4nc5ccncc5[nH]4)cccc32)ccn1 (racemic) [Example 108, methyl ester of 4-[4-(3H-imidazo[4,5-c]pyridin-2-yl)-9H-fluoren-9(R,S)-ylcarbamoyl]-pyridine-2-carboxylic acid]"
6,5.00 to 6.00,"CNc1cc(C(=O)NC2c3ccccc3-c3c(-c4nc5ccncc5[nH]4)cccc32)ccn1 (racemic) [Example 116, N-[4-(3H-imidazo[4,5-c]pyridin-2-yl)-9H-fluoren-9(R,S)-yl]-2-methylamino-isonicotinamide]"
7,4.00 to 5.00,"Nc1cccc(C(=O)NC2c3ccccc3-c3c(-c4nc5ccncc5[nH]4)cccc32)c1 (racemic) [Example 115, 3-amino-N-[4-(3H-imidazo[4,5-c]pyridin-2-yl)-9H-fluoren-9(R,S)-yl]-benzamide]"
8,5.00 to 6.00,"N#Cc1cc(C(=O)NC2c3ccccc3-c3c(-c4nc5ccncc5[nH]4)cccc32)ccn1 (racemic) [Example 105, 2-cyano-N-[4-(3H-imidazo[4,5-c]pyridin-2-yl)-9H-fluoren-9(R,S)-yl]-isonicotinamide]"
9,5.00 to 6.00,"O=C(NC1c2ccccc2-c2c(-c3nc4ccncc4[nH]3)cccc21)c1ccnc(N2CCCC2)c1 (racemic) [Example 120, N-[4-(3H-imidazo[4,5-c]pyridin-2-yl)-9H-fluoren-9(R,S)-yl]-2-pyrrolidin-1-yl-isonicotinamide]"
10,> 6.00,"O=C(NC1c2ccccc2-c2c(-c3nc4ccncc4[nH]3)cccc21)c1ccnc2[nH]ccc12 (racemic) [Example 92, [4-(3H-imidazo[4,5-c]pyridin-2-yl)-9H-fluoren-9(R,S)-yl]amide of 1H-pyrrolo[2,3-b]pyridine-4-carboxylic acid]"
11,> 6.00,"Nc1cnccc1C(=O)NC1c2ccccc2-c2c(-c3nc4ccncc4[nH]3)cccc21 (racemic) [Example 104, 3-amino-N-[4-(3H-imidazo[4,5-c]pyridin-2-yl)-9H-fluoren-9(R,S)-yl]-isonicotinamide]"

# Further lines, the compound ahead of its results:
row,Compound,pIC50
1,"O=C(NC1c2ccccc2-c2c(-c3nc4ccncc4[nH]3)cccc21)c1ccc2cc[nH]c2c1 (racemic) [Example 46, [4-(3H-imidazo[4,5-c]pyridin-2-yl)-9H-fluoren-9(R,S)-yl]amide of 1H-indole-6-carboxylic acid]",5.00 to 6.00
2,"O=C(NC1c2ccccc2-c2c(-c3nc4ccccc4[nH]3)cccc21)c1cccc2ncccc12 (racemic) [Example 83, [4-(1H-benzimidazol-2-yl)-9H-fluoren-9(R,S)-yl]amide of quinoline-5-carboxylic acid]",4.00 to 5.00
3,"O=C(NC1c2ccccc2-c2c(-c3nc4ccncc4[nH]3)cccc21)c1ccnnc1 (centres unmarked) [Example 86, [4-(3H-imidazo[4,5-c]pyridin-2-yl)-9H-fluoren-9-yl]amide of pyridazine-4-carboxylic acid]",5.00 to 6.00
4,"O=C(NC1c2ccccc2-c2c(-c3nc4ccncc4[nH]3)cccc21)c1cccc(O)c1 (racemic) [Example 50, hydrochloride of 3-hydroxy-N-[4-(3H-imidazo[4,5-c]pyridin-2-yl)-9H-fluoren-9(R,S)-yl]-benzamide]",5.00 to 6.00
5,"CC(C)(C)OC(=O)Nc1cc(C(=O)NC2c3ccccc3-c3c(-c4nc5ccncc5[nH]4)cccc32)ccn1 (racemic) [Example 125, N-[4-(3H-imidazo[4,5-c]pyridin-2-yl)-9H-fluoren-9(R,S)-yl]amide of 2-tert-butoxycarbonylaminoisonicotinic acid]",> 6.00
6,"O=C(NCc1ccc(F)cc1)NC1c2ccccc2-c2c(-c3nc4ccncc4[nH]3)cccc21 (racemic) [Example 75, 1-(4-fluorobenzyl)-3-[4-(3H-imidazo[4,5-c]pyridin-2-yl)-9H-fluoren-9(R,S)-yl]-urea]",4.00 to 5.00
7,"O=C(N[C@H]1c2ccccc2-c2c(-c3nc4ccncc4[nH]3)cccc21)c1cccc2ncccc12 (single isomer, unassigned) [Example 14A]",> 6.00
8,"O=C(NC1c2ccccc2-c2c(-c3nc4ccncc4[nH]3)cccc21)C1CCOCC1 (racemic) [Example 32, [4-(3H-imidazo[4,5-c]pyridin-2-yl)-9H-fluoren-9(R,S)-yl]amide of tetrahydropyran-4-carboxylic acid]",4.00 to 5.00
9,"O=C(Cc1ccc(Cl)nc1)NC1c2ccccc2-c2c(-c3nc4cnccc4[nH]3)cccc21 (racemic) [Example 25, 2-(6-chloropyridin-3-yl)-N-[4-(3H-imidazo[4,5-c]pyridin-2-yl)-9H-fluoren-9(R,S)-yl]-acetamide]",5.00 to 6.00
10,"c1ccc(CCNC2c3ccccc3-c3c(-c4nc5cnccc5[nH]4)cccc32)cc1 (racemic) [Example 16, N-[4-(3H-imidazo[4,5-c]pyridin-2-yl)-9H-fluoren-9(R,S)-yl]-phenethyl-amine]",4.00 to 5.00
11,"O=C(NC1c2ccccc2-c2c(-c3nc4ccncc4[nH]3)cccc21)c1cccc2cnccc12 (racemic) [Example 35, [4-(3H-imidazo[4,5-c]pyridin-2-yl)-9H-fluoren-9(R,S)-yl]amide of isoquinoline-5-carboxylic acid]",4.00 to 5.00
12,"O=C(NC1c2ccccc2-c2c(-c3nc4ccc(F)cc4[nH]3)cccc21)c1cccc2ncccc12 (racemic) [Example 84, [4-(6-fluoro-1H-benzimidazol-2-yl)-9H-fluoren-9(R,S)-yl]amide of quinoline-5-carboxylic acid]",5.00 to 6.00
13,"O=C(N[C@H]1c2ccccc2-c2c(-c3nc4ccncc4[nH]3)cccc21)c1cccc2ncccc12 (single isomer, unassigned) [Example 14B]",4.00 to 5.00
14,"CC(=O)Nc1cc(C(=O)NC2c3ccccc3-c3c(-c4nc5cnccc5[nH]4)cccc32)ccn1 (racemic) [Example 66, 2-acetylamino-N-[4-(3H-imidazo[4,5-c]pyridin-2-yl)-9H-fluoren-9(R,S)-yl]-isonicotinamide]",> 6.00
15,"O=C1CCc2c1cccc2C(=O)NC1c2ccccc2-c2c(-c3nc4cnccc4[nH]3)cccc21 (racemic) [Example 60, [4-(3H-imidazo[4,5-c]pyridin-2-yl)-9H-fluoren-9(R,S)-yl]amide of 1-oxo-indan-4-carboxylic acid]",5.00 to 6.00
16,"Nc1nccc(C(=O)NC2c3ccccc3-c3c(-c4nc5ccncc5[nH]4)cccc32)n1 (centres unmarked) [Example 91, [4-(3H-imidazo[4,5-c]pyridin-2-yl)-9H-fluoren-9-yl]amide of 2-amino-pyrimidine-4-carboxylic acid]",> 6.00
17,"Nc1nc(CC(=O)NC2c3ccccc3-c3c(-c4nc5cnccc5[nH]4)cccc32)cs1 (racemic) [Example 24, trifluoroacetate of 2-(2-amino-thiazol-4-yl)-N-[4-(3H-imidazo[4,5-c]pyridin-2-yl)-9H-fluoren-9(R,S)-yl]-acetamide]",5.00 to 6.00
18,"O=C(NC1c2ccccc2-c2c(-c3nc4ccncc4[nH]3)cccc21)C(=O)c1ccoc1 (racemic) [Example 36, 2-furan-3-yl-N-[4-(3H-imidazo[4,5-c]pyridin-2-yl)-9H-fluoren-9(R,S)-yl]-2-oxo-acetamide]",5.00 to 6.00
19,"Cc1ccc2c(C(=O)NC3c4ccccc4-c4c(-c5nc6ccncc6[nH]5)cccc43)cccc2n1 (centres unmarked) [Example 90, [4-(3H-imidazo[4,5-c]pyridin-2-yl)-9H-fluoren-9-yl]amide of 2-methyl-quinoline-5-carboxylic acid]",5.00 to 6.00
20,"FC1c2ccccc2-c2c(-c3nc4cnccc4[nH]3)cccc21 (racemic) [Example 10, 2-[9(R,S)-fluoro-9H-fluoren-4-yl]-1H-imidazo[4,5-c]pyridine]",5.00 to 6.00
21,"CC(C)(C)OC(=O)N[C@H](CC(N)=O)C(=O)NC1c2ccccc2-c2c(-c3nc4cnccc4[nH]3)cccc21 (stereo partly drawn) [Example 61, tert-butyl ester of {(R)-2-carbamoyl-1-[4-(3H-imidazo[4,5-c]pyridin-2-yl)-9H-fluoren-9(R,S)-ylcarbamoyl]-ethyl}-carbamoic acid]",5.00 to 6.00
22,"c1ccc(CNN=C2c3ccccc3-c3c2cccc3-c2nc3cnccc3[nH]2)cc1 (mixture of isomers) [Example 8, N-benzyl-N′-[4-(1H-imidazo[4,5-c]pyridin-2-yl)-fluoren-9-ylidene]-hydrazine, 55/45 mixture of E and Z isomers]",5.00 to 6.00
23,"CCc1cc(C(=O)NC2c3ccccc3-c3c(-c4nc5ccncc5[nH]4)cccc32)ccn1 (racemic) [Example 82, 2-ethyl-N-[4-(3H-imidazo[4,5-c]pyridin-2-yl)-9H-fluoren-9(R,S)-yl]-isonicotinamide]",> 6.00
24,"ON=C1c2ccccc2-c2c1cccc2-c1nc2cnccc2[nH]1 (mixture of isomers) [Example 5, 4-(3H-imidazo[4,5-c]pyridin-2-yl)-fluoren-9-one oxime (Z, E)]",5.00 to 6.00
